{
  "source": "patent US6441036B1",
  "about": "(priority 1998, dated 2002)",
  "key": {"[1]": {"experiment": "High fat diet feeding, adipose tissue weights (Example 5)", "assay_type": "in vivo, Wistar Charles River rats", "conditions": "high fat diet + 0.4% TTA, three weeks; means ± SEM", "description": "Male Wistar rats Charles River rats weighing 280-358 g were purchases from AnLab Ltd. (Prague, Czech Repubic) and housed in wire-mesh cages in a temperature (22±1° C.) and light-controlled (light from 7:00 a.m. to 7.00 p.m.) room. They were given free access to chow and water. Three rats were housed per cage. Weight gain and food intake were recorded daily.\nHigh fat (HF): 1.9% gelatin, 5.7% wheat bran, 7.7% vitamins and minerals, 25.4% corn starch, 25.7% casein, 26.8% beef tallow and 7.1 % sunflower oil.\nHF+TTA: Same +0.4% TTA dissolved in the beef tallow.\nMale Wistar Charles River rats (280-360 g) were fed 3 different diets (see methods) for 3 weeks ad libitum. Afterwards, they were killed by decapitation, liver and epididymal adipose tissue pads were dissected out and weighed."}, "[2]": {"experiment": "Body weight of normal rats after 12 weeks (Example 6)", "assay_type": "in vivo", "conditions": "male Wistar rats, oral, 12 weeks of treatment", "description": "2 groups of 6 male Wistar Rats were randomly selected, and studied for weight development over a period of 12 week. The body weight of each Wistar rat was measured at the start of the experiment. All animals in both groups received individually the same amount of food (nutrition) during the experimental period of 12 weeks. All animals in one of the groups were orally administrated with the medicament comprising TTA. The other group was the control group (CMC). After the 12 week period the body weight of rats were measured again."}, "[3]": {"experiment": "Euglycemic hyperinsulinemic clamp, high fat diet induced insulin resistance (Example 12)", "assay_type": "in vivo, Wistar Charles River rats", "conditions": "HF diet supplemented with TTA, 21 days; 45-90 minutes of clamp", "description": "After 21 days on their respective diets (see above), the rats were anaesthetised by injection of xylazine hydrochloride (Rometar SPOFA, Prague, Czech Republic; 10 mg/ml) and ketamine hydrochloride (Narkamon SPOFA, Prague, Czech republic; 75 mg/ml), and fitted with chronic carotid artery and jugular vein cannulas as described by Koopmans et al. (Koopmans, S. J., et al., Biochim Biophys Acta, 1115, […] 1992.). The cannulated rats were allowed to recover for two days after surgery before the clamping studies which were carried out according to Kraegen et al. (Kraegen, E. W., et al., Am J Physiol, 248, E353-E362 1983.). Thus, on the third day after surgery, unrestrained conscious rats were given a continuous infusion of porcine insulin (Actrapid, Novo Nordisk, Denmark) at a dose of 6.4mU per kg per min to achieve plasma insulin levels in the upper physiological range. The arterial blood glucose concentration was clamped at the basal fasting level, by variable infusion of a 30% w/v glucose solution (Leciva, Prague, Czech Republic). […]\nRats weighing 330±20 g were divided into 3 groups (n=9) and fed with three different diets: standard rat chow, high fat diet (HF) and HF supplemented with TTA. […] The glucose infusion rate (GIR) was determined from the period of the clamp where glycemia got stabilised, i.e. between 45-90 minutes after clamp commencement. […]"}, "[4]": {"system": "mitochondrial β-oxidation", "experiment": "Liver fatty acid oxidation in treated obese Zucker rats (Example 16)", "assay_type": "in vivo, obese Zucker (fa/fa) rats", "conditions": "palmitoyl-CoA and palmitoyl-L-carnitine as substrates; chow with 0.15% TTA, 21 days", "description": "Freshly isolated livers from individual old Zucker rats, were homogenised in ice-cold sucrose buffer (0.25 M sucrose, 10 mM HEPES (pH 7.4) and 2 mM EDTA). Post-nuclear and mitochondrial fractions were prepared using preparative differential centrifugation according to DeDuve et al. (De Duve, C., et al., Biochem. J., 60, 604-617 1955.) Modifications, purity and yield were as described earlier (Garras, A., et al., Biochim. Biophys. Acta, 1255, 154-160 1995.). Acid soluble products were measured in post-nuclear and mitochondrial enriched fractions, using [1-^14C]-palmitoyl-CoA and [1-^14C]-palmitoyl-L-carnitine (Radio-chemical Centre, Amersham, England) as substrates as described earlier (Willumsen, N., et al., J. Lipid Res., 34, 13-22 1993. Carnitine palmitoyltransferase-I and -II activities were measured in the post-nuclear and mitochondrial fractions essentially as described by Bremer (Bremer, J., Biochim. Biophys. Acta, 665, 628-631 1981.) and 3-hydroxy-3-methylglutharyl-CoA synthase was measured according to Clinkenbeard et al. (Clinkenbeard, K. D., et al., J. Biol. Chem, 250, 3108-3116 1975.) in the mitochondrial fractions.\nObese Zucker (fa/fa) rats were given a standard chow either with (n=6) or without (n=5) 0.15% TTA. Following 21 days of treatment, rats were killed by cervical dislocation and the livers were removed. […] Values are expressed as the mean±S.D."}},
  "data": [
    {"substance": "Tetradecylthioacetic acid [TTA]", "values": [
      {"measurement": "Epididymal adipose tissue", "setting": "[1]", "result": "3.1 ± 0.2", "unit": "g"},
      {"measurement": "Retroperitoneal adipose tissue", "setting": "[1]", "result": "2.7 ± 0.2", "unit": "g"},
      {"measurement": "Body weight gain", "setting": "[2]", "result": "234 ± 20", "unit": "g"},
      {"measurement": "Glucose infusion rate (GIR) in clamp (FIG. 4)", "setting": "[3]", "result": "fully normal"},
      {"measurement": "Increase of liver fatty acid oxidation (FIG. 8A)", "setting": "[4]", "result": "more than 7 fold"}
    ]}
  ]
}
